Assay [1] has as its target T1, IRAP (Homo sapiens, UniProt Q9UIQ6).
T1 construct: The screen was performed with the soluble truncated IRAP enzyme; made in house
The experiment in a line: Primary fluorescence IRAP assay (L-Leucine-7-amido-4-methylcoumarin cleavage). The assay is classed as biochemical. To be noted: for IC50 / Fluorescence pIC50: 37.5 µM L-Leucine-7-amido-4-methylcoumarin, 60 min RT, dose-response 20 µM-27.4 nM; for IC50: read-out: Fluorescence IC50; for LipE: calculated from (pIC50Fluorescence − LogD).

Assay [2] concerns the target T1, IRAP. Put plainly: Orthogonal absorbance IRAP assay (L-Leucine para-nitroanilide cleavage). The format is biochemical. To be noted: 1 mM L-Leucine p-Nitroanilide, 120 min RT; for IC50: read-out: Absorbance pIC50 (converted). An outline of the steps:
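Absorbance assay: IRAP protein at 2.5 × 10^−4 mg/mL final with 1 mM L-leucine para-nitroanilide in buffer containing 0.05% BSA; 120 min at RT in the dark. para-Nitroaniline read at 405 nm. Dose–response spanned 20 μM–27.4 nM compound, 1% DMSO.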

Assay [3] deals with T1, IRAP. The experiment in a line: Deselection fluorescence IRAP assay with 10 µM zinc. The assay is classed as biochemical. To be noted: 10 µM ZnSO4 in assay buffer; for IC50: read-out: Fluorescence + Zn pIC50 (converted).
For assay [4], the target named is T1, IRAP. The experiment in a line: Thermal shift (TSA) IRAP assay. The format is binding. To be noted: screening hits at 30 µM, 1% DMSO.
Details of assay [5]: method as in ELF screening history. Particulars: ref ELF screening history, cited from earlier work; for Enzyme Active: number of ELF enzyme screens in which the compound was active; for Targets active: number of ELF screens in which the compound was active; for Enzyme Active %: share of ELF enzyme targets screened; for Targets Active %: share of all ELF targets screened.

In general, ΔTm refers to the change in melting temperature against a reference sample.

T1 sequence (Q9UIQ6 155-1025 limits assumed): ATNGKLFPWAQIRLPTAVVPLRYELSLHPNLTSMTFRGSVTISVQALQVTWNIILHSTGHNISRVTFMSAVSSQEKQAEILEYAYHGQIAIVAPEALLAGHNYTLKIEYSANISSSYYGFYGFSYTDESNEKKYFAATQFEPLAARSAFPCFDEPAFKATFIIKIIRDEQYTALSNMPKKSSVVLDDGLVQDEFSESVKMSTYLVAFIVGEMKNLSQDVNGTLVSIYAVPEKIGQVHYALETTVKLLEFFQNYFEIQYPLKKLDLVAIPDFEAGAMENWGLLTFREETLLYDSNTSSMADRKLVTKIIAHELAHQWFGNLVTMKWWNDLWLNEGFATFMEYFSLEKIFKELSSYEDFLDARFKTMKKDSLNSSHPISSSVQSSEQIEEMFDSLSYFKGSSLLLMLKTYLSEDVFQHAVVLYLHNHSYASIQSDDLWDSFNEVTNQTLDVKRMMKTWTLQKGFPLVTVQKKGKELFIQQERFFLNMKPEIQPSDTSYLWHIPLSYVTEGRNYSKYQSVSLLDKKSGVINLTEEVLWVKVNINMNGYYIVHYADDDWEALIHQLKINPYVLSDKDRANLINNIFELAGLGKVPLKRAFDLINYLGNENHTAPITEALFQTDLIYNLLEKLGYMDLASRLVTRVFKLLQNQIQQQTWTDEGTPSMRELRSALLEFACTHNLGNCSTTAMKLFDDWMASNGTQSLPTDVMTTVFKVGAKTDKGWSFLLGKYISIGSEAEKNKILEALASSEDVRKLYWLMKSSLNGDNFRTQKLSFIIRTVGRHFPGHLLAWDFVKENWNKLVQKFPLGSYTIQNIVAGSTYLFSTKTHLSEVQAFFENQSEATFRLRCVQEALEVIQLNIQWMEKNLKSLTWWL

Turning to `O=C(C1CCCCC1)N1CCC[C@@H]1c1cc(-c2cccnc2)on1` [QHL27], in assay [1], the IC50 came to 3.24 µM and the LipE is 2.14. Further, the IC50 in assay [2] was 10.7 µM. The IC50 in assay [3] is 5.13 µM. The ΔTm at 30 µM in assay [4] turned out to be 1.48 °C. Besides, in assay [5], the “Enzyme Active” value is recorded as 4, the Targets active is given as 5, the “Enzyme Active %” value is 5.0% and the “Targets Active %” value is listed as 3.4%.
For `CSc1[nH]c(-c2ccccc2)nc1S(=O)(=O)c1ccccc1` [QHL28], in assay [1], the IC50 turned out to be 3.24 µM and the LipE was 1.54. Also, the IC50 in assay [2] is 15.5 µM. Moreover, the IC50 in assay [3] is 5.62 µM. In addition, the ΔTm at 30 µM in assay [4] was found to be 0.15 °C. In assay [5], the “Enzyme Active” value is listed as 4, the Targets active is 6, the “Enzyme Active %” value was 4.3% and the “Targets Active %” value is 4.0%.
For `O=C(Cc1cc(N2CCCCCC2)nc(-c2ccc(Cl)cc2)n1)NO` [QHL29], in assay [1], the IC50 came to 3.31 µM and the LipE is listed as 1.60. Besides, the IC50 in assay [2] was 2.95 µM. Further, the IC50 in assay [3] was 3.24 µM. The ΔTm at 30 µM in assay [4] was determined as 1.92 °C. In assay [5], the “Enzyme Active” value is listed as 10, the Targets active is on record as 14, the “Enzyme Active %” value is listed as 11.8% and the “Targets Active %” value is 10.2%.
Take `Fc1ccc(F)c(Cn2ccc3ncccc32)c1Cl` [QHL31]: in assay [1], the “Fluorescence pIC50” value was found to be 5.46, the IC50 came to 3.47 µM and the LipE is on record as 1.05. The “Absorbance pIC50” value in assay [2] is below 4.70. In addition, the “Fluorescence + Zn pIC50” value in assay [3] came out at 5.38. Also, the ΔTm at 30 µM in assay [4] was 0 °C. In assay [5], the “Enzyme Active” value is 5, the Targets active is 8, the “Enzyme Active %” value was 5.3% and the “Targets Active %” value was 5.3%.
Turning to `CCCNc1nc(N(C)C)nc2cc(OC)c(OC)cc12` [QHL32], in assay [1], the IC50 is 3.47 µM and the LipE is given as 3.10. The IC50 in assay [2] is above 20 µM. For the same compound, the IC50 in assay [3] is 6.17 µM. The ΔTm at 30 µM in assay [4] came out at 0.15 °C. In assay [5], the “Enzyme Active” value was 1, the Targets active is 2, the “Enzyme Active %” value was 2.4% and the “Targets Active %” value is 2.6%.
Regarding `COc1cc2c(cc1-c1cnco1)C(=O)N(C)C(C)(C=Cc1ccncc1)N2` (stereo not drawn) [QHL33], in assay [1], the “Fluorescence pIC50” value amounted to 5.43, the IC50 is 3.72 µM and the LipE is reported as 3.82. For the same compound, the “Absorbance pIC50” value in assay [2] was 5.510. Also, in assay [3], the “Fluorescence + Zn pIC50” value was 5.42. Besides, the “TSA (∆°C), thermal shift of IRAP” value in assay [4] was 0.74 °C. Moreover, in assay [5], the “Enzyme Active” value was 4, the Targets active is 5, the “Enzyme Active %” value is reported as 4.3% and the “Targets Active %” value is 3.4%.
As to `Nc1nc2cc(C(=O)O)ccc2n1Cc1cc(F)cc(F)c1` [QHL34], in assay [1], the “Fluorescence pIC50” value was 5.41, the IC50 is 3.89 µM and the LipE is recorded as 3.88. Besides, in assay [2], the “Absorbance pIC50” value is given as below 4.70. For the same compound, in assay [3], the “Fluorescence + Zn pIC50” value was 5.39. Besides, the “TSA (∆°C), thermal shift of IRAP” value in assay [4] was determined as 0.3 °C. Moreover, in assay [5], the “Enzyme Active” value is listed as 1, the Targets active is reported as 2, the “Enzyme Active %” value is reported as 1.3% and the “Targets Active %” value is 1.4%.
`COc1cc(CN2C(Cc3ccc(S(C)(=O)=O)cc3)CCC2c2cccnc2)cc(OC)c1` (stereo not drawn) [QHL35]: in assay [1], the “Fluorescence pIC50” value amounted to 5.40, the IC50 came out at 3.98 µM and the LipE is listed as 1.15. The “Absorbance pIC50” value in assay [2] amounted to 4.85. In addition, the “Fluorescence + Zn pIC50” value in assay [3] was determined as 5.34. Besides, the “TSA (∆°C), thermal shift of IRAP” value in assay [4] turned out to be 0 °C. In assay [5], the “Enzyme Active” value is given as 6, the Targets active was 8, the “Enzyme Active %” value is 6.8% and the “Targets Active %” value is 5.5%.
On to `O=C(N1CCCC1)C1(CNS(=O)(=O)c2cccc3ccccc23)CC12CCCCC2` (stereo not drawn) [QHL37], for which, in assay [1], the “Fluorescence pIC50” value was determined as 5.36, the IC50 came to 4.37 µM and the LipE is 1.74. Moreover, the “Absorbance pIC50” value in assay [2] was below 4.70. Besides, the “Fluorescence + Zn pIC50” value in assay [3] is given as 5.36. The “TSA (∆°C), thermal shift of IRAP” value in assay [4] came out at 0.15 °C. In assay [5], the “Enzyme Active” value is 5, the Targets active is reported as 7, the “Enzyme Active %” value is listed as 12.2% and the “Targets Active %” value was 9.3%.
Regarding `NCC[C@H]1CCCCN1C(=O)Cn1nc(-c2ccc(Cl)nc2)c2c1CCCC2` [QHL38], in assay [1], the IC50 stood at 4.68 µM and the LipE is 3.06. Moreover, the IC50 in assay [2] is 11 µM. For the same compound, in assay [3], the IC50 is 4.57 µM. The ΔTm at 30 µM in assay [4] was 2.22 °C. Also, in assay [5], the “Enzyme Active” value is 5, the Targets active is recorded as 9, the “Enzyme Active %” value is reported as 6.3% and the “Targets Active %” value is reported as 6.5%.
In the case of `CCOC(=O)c1c(Cl)cc(C)nc1N1CCCC(Cc2ccc(C(=O)N(C)C)cc2)C1` (stereo not drawn) [QHL39], in assay [1], the “Fluorescence pIC50” value is on record as 5.33, the IC50 was 4.68 µM and the LipE is given as 0.66. Besides, the “Absorbance pIC50” value in assay [2] was determined as 5.12. In addition, in assay [3], the “Fluorescence + Zn pIC50” value is reported as 5.33. Also, the “TSA (∆°C), thermal shift of IRAP” value in assay [4] was determined as 0 °C. Moreover, in assay [5], the “Enzyme Active” value was 6, the Targets active is 7, the “Enzyme Active %” value is 7.1% and the “Targets Active %” value is 4.9%.
On to `O=C1CN(c2cc(=O)n3ccn(Cc4ccc(F)cc4Cl)c3n2)CCN1` [QHL40], for which, in assay [1], the IC50 is 4.68 µM and the LipE is on record as 4.38. Also, the IC50 in assay [2] is above 20 µM. In addition, the IC50 in assay [3] is 5.25 µM. The ΔTm at 30 µM in assay [4] came to 0.3 °C. In assay [5], the “Enzyme Active” value was 4, the Targets active is given as 6, the “Enzyme Active %” value is recorded as 4.3% and the “Targets Active %” value was 4.2%.
Consider `CCCCc1nc2ccn(Cc3cccc(C#N)c3)c(=O)c2n1Cc1cccc(C#N)c1` [QHL41], for which, in assay [1], the “Fluorescence pIC50” value worked out at 5.33, the IC50 came to 4.68 µM and the LipE is given as 0.59. For the same compound, the “Absorbance pIC50” value in assay [2] was found to be 5.81. Also, in assay [3], the “Fluorescence + Zn pIC50” value was 5.11. Moreover, in assay [4], the “TSA (∆°C), thermal shift of IRAP” value was 0.44 °C. Besides, in assay [5], the “Enzyme Active” value is given as 6, the Targets active is given as 8, the “Enzyme Active %” value is listed as 7.6% and the “Targets Active %” value is listed as 5.5%.
Consider `NC(=O)CCc1ccc2c(c1)nc(N)n2Cc1ccc(-c2ccccc2)cc1` [QHL42], for which, in assay [1], the “Fluorescence pIC50” value amounted to 5.32, the IC50 came out at 4.79 µM and the LipE is on record as 1.29. The “Absorbance pIC50” value in assay [2] is listed as 5.40. The “Fluorescence + Zn pIC50” value in assay [3] is 5.32. Also, in assay [4], the “TSA (∆°C), thermal shift of IRAP” value is 2.96 °C. Further, in assay [5], the “Enzyme Active” value was 6, the Targets active is 12, the “Enzyme Active %” value is listed as 7.3% and the “Targets Active %” value is 8.1%.
For the compound `c1scc2c(N3CCCCCC3)nc(N3CCC3)nc12` [QHL44], in assay [1], the “Fluorescence pIC50” value is reported as 5.19, the IC50 worked out at 6.46 µM and the LipE was 1.50. For the same compound, the “Absorbance pIC50” value in assay [2] is listed as below 4.70. The “Fluorescence + Zn pIC50” value in assay [3] stood at 5.18. Besides, the “TSA (∆°C), thermal shift of IRAP” value in assay [4] was found to be 0.44 °C. In assay [5], the “Enzyme Active” value was 4, the Targets active was 6, the “Enzyme Active %” value is 4.3% and the “Targets Active %” value is on record as 4.0%.
`CCn1c(=O)n(CC(=O)N(C)CCc2ccc(O)c3[nH]c(=O)sc23)c2ccccc21` [QHL45]: in assay [1], the “Fluorescence pIC50” value turned out to be 5.11, the IC50 worked out at 7.76 µM and the LipE was 2.74. Also, the “Absorbance pIC50” value in assay [2] is reported as 6.09. Moreover, the “Fluorescence + Zn pIC50” value in assay [3] came to 5.12. For the same compound, the “TSA (∆°C), thermal shift of IRAP” value in assay [4] came to 0.89 °C. Moreover, in assay [5], the “Enzyme Active” value is given as 5, the Targets active was 11, the “Enzyme Active %” value is reported as 6.0% and the “Targets Active %” value was 7.9%.
As for `COCCN1CCc2cnc(NCc3ccc(S(N)(=O)=O)cc3)cc21` [QHL47], in assay [1], the “Fluorescence pIC50” value is given as 4.99, the IC50 was determined as 10.2 µM and the LipE is listed as 3.57. The “Absorbance pIC50” value in assay [2] came to 5.51. Besides, the “Fluorescence + Zn pIC50” value in assay [3] turned out to be 4.99. Besides, in assay [4], the “TSA (∆°C), thermal shift of IRAP” value amounted to 0.3 °C. Also, in assay [5], the “Enzyme Active” value is 4, the Targets active is listed as 6, the “Enzyme Active %” value is recorded as 4.7% and the “Targets Active %” value is recorded as 4.2%.
For the compound `Cc1cc2nc(N)n(Cc3ccccc3)c2cc1C` [QHL49], in assay [1], the “Fluorescence pIC50” value was 4.75, the IC50 was found to be 17.8 µM and the LipE is given as 0.76. The “Absorbance pIC50” value in assay [2] came out at 5.65. In addition, the “Fluorescence + Zn pIC50” value in assay [3] came to 4.74. For the same compound, in assay [4], the “TSA (∆°C), thermal shift of IRAP” value is 0.44 °C. In assay [5], the “Enzyme Active” value was 4, the Targets active is recorded as 9, the “Enzyme Active %” value is 4.9% and the “Targets Active %” value was 6.2%.
